CCCNS(=O)(=O)Nc1ncnc(OCCOc2ncc(Br)cn2)c1-c1ccc(Br)cc1
solubility (mole fraction)
Conditions	273.15 K	278.15 K	283.15 K	288.15 K	293.15 K	298.15 K	303.15 K	308.15 K	313.15 K
in ethanol	6.4e-05	8.8e-05	0.000117	0.000151	0.000188	0.000234	0.000293	0.000365	0.000458
in ethyl acetate	0.00338	0.00406	0.00483	0.00577	0.00681	0.00793	0.00921	0.0107	0.0122
in isopropanol	4.7e-05	5.9e-05	7.5e-05	9.2e-05	0.000114	0.000141	0.000172	0.000206	0.000246
in methanol	7.6e-05	0.000109	0.000145	0.000186	0.000232	0.000284	0.000358	0.000463	0.000602

Source: BigSolDB 2.1
